This series is described as follows: solubility of mizolastine in water.

With “2-[[1-[1-[(4-fluorophenyl)methyl]-1H-benzimidazol-2-yl]piperid-4-yl]methylamino]-pyrimidin-4-ol [mizolastine]”, where the note is “neutral pH”, the solubility in water was 13 µg/mL. In addition, under “pH 3”, the solubility (commonly how much of the substance goes into solution per volume) came out at 11000 µg/mL.

Values taken from US20050202089A1 (SANOFI-SYNTHELABO, priority 1996, published 2005).
